Laboratory results as given in ChEMBL document CHEMBL1201862, “PubChem BioAssay data set” (2004).
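Cultured in 96-well plates, cells were exposed to test compound for 48 hours across five concentrations. GI50 = concentration required for 50% inhibition of growth.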 Calls of active or inactive are those of the source. Rule as the data show it: active = GI50 up to about 1.1 µM and inactive = higher.

Experiments:
Experiment in all cases: NCI-60 cell line screen, 48 h
ACHN = tested on: ACHN
NCI/ADR-RES = tested on: NCI/ADR-RES
HCT-116 = tested on: HCT-116
NCI-H23 = tested on: NCI-H23
EKVX = tested on: EKVX
Malme-3M = tested on: Malme-3M
SF-539 = tested on: SF-539
OVCAR-5 = tested on: OVCAR-5
T47D = tested on: T47D
SW-620 = tested on: SW-620
HT-29 = tested on: HT-29
U-251 = tested on: U-251
IGROV-1 = tested on: IGROV-1
BT-549 = tested on: BT-549
SK-MEL-28 = tested on: SK-MEL-28
KM12 = tested on: KM12
RXF 393 = tested on: RXF 393
SR = tested on: SR
M14 = tested on: M14
CCRF-CEM = tested on: CCRF-CEM

Row | Compound | GI50 (ACHN) | GI50 (NCI/ADR-RES) | GI50 (HCT-116) | GI50 (NCI-H23) | GI50 (EKVX) | GI50 (Malme-3M) | GI50 (SF-539) | GI50 (OVCAR-5) | GI50 (T47D) | GI50 (SW-620) | GI50 (HT-29) | GI50 (U-251) | GI50 (IGROV-1) | GI50 (BT-549) | GI50 (SK-MEL-28) | GI50 (KM12) | GI50 (RXF 393) | GI50 (SR) | GI50 (M14) | GI50 (CCRF-CEM)
1 | O=S(=O)(c1ccccc1)N1CCN(S(=O)(=O)c2ccccc2)c2ccccc21 | > 100 µM (inactive) | 95.7 µM (inactive) | 45.2 µM (inactive) | 52.1 µM (inactive) | 31 µM (inactive) | > 100 µM (inactive) | > 100 µM (inactive) | > 100 µM (inactive) | > 100 µM (inactive) | > 100 µM (inactive) | 93.5 µM (inactive) | > 100 µM (inactive) | > 100 µM (inactive) | > 100 µM (inactive) | > 100 µM (inactive) | > 100 µM (inactive) | > 100 µM (inactive) | > 100 µM (inactive) | 96.6 µM (inactive) | –
2 | N=C(N)NS(=O)(=O)c1ccc(NC(=O)c2cccc3c(NNc4ccc(S(N)(=O)=O)cc4)c4ccccc4nc23)cc1 | 66.5 µM (inactive) | > 100 µM (inactive) | 53.8 µM (inactive) | > 100 µM (inactive) | 47.4 µM (inactive) | 34.8 µM (inactive) | > 100 µM (inactive) | > 100 µM (inactive) | 18.7 µM (inactive) | 45.4 µM (inactive) | 47 µM (inactive) | 44.2 µM (inactive) | 55.5 µM (inactive) | 74.5 µM (inactive) | > 100 µM (inactive) | 50.7 µM (inactive) | > 100 µM (inactive) | 35 µM (inactive) | > 100 µM (inactive) | 34.5 µM (inactive)
3 | Cc1cccc2c1c(=O)c1c(O)c3c(cc1n2C)OC(C)(C)C=C3 | > 10 µM (inactive) | > 10 µM (inactive) | > 10 µM (inactive) | > 10 µM (inactive) | > 10 µM (inactive) | > 10 µM (inactive) | > 10 µM (inactive) | > 10 µM (inactive) | > 10 µM (inactive) | > 10 µM (inactive) | 3.59 µM (inactive) | > 10 µM (inactive) | > 10 µM (inactive) | > 10 µM (inactive) | > 10 µM (inactive) | > 10 µM (inactive) | > 10 µM (inactive) | 9.53 µM (inactive) | > 10 µM (inactive) | > 10 µM (inactive)
4 | CN(C)CCNS(=O)(=O)c1ccc(N)cc1 | > 100 µM (inactive) | > 100 µM (inactive) | > 100 µM (inactive) | > 100 µM (inactive) | > 100 µM (inactive) | > 100 µM (inactive) | > 100 µM (inactive) | > 100 µM (inactive) | > 100 µM (inactive) | > 100 µM (inactive) | > 100 µM (inactive) | > 100 µM (inactive) | > 100 µM (inactive) | > 100 µM (inactive) | > 100 µM (inactive) | > 100 µM (inactive) | > 100 µM (inactive) | > 100 µM (inactive) | > 100 µM (inactive) | > 100 µM (inactive)
5 | O=C[C@@H](CO)O[C@H](C=O)c1c[nH]c(=O)[nH]c1=O | 81.1 µM (inactive) | 103 µM (inactive) | 84.5 µM (inactive) | 69.3 µM (inactive) | 75.7 µM (inactive) | 88.7 µM (inactive) | 101 µM (inactive) | 131 µM (inactive) | 73.6 µM (inactive) | 62.8 µM (inactive) | 107 µM (inactive) | 143 µM (inactive) | 81.1 µM (inactive) | 79.1 µM (inactive) | 85.7 µM (inactive) | 93.3 µM (inactive) | 54.8 µM (inactive) | 35.6 µM (inactive) | 126 µM (inactive) | 34.9 µM (inactive)
6 | CCN(CC)CCCC(C)Nc1c2ccc(Cl)cc2nc2ccc(OC)cc12 (configuration not stated) | 2.42 µM (inactive) | 1.86 µM (inactive) | 0.61 µM (active) | 1.61 µM (inactive) | 4.61 µM (inactive) | 1.9 µM (inactive) | 1.67 µM (inactive) | 2 µM (inactive) | 2.31 µM (inactive) | 0.637 µM (active) | 1.03 µM (active) | 1.29 µM (inactive) | 1.76 µM (inactive) | 2.47 µM (inactive) | 1.61 µM (inactive) | 1.63 µM (inactive) | 1.2 µM (inactive) | 0.895 µM (active) | 1.81 µM (inactive) | 1 µM (active)
7 | CCOC(=O)C1(C(=O)OCC)[C@@H](c2ccccc2)C2=NO[C@@H]3CCC[C@H]1[C@H]23 | 66.7 µM (inactive) | 56.9 µM (inactive) | 45.5 µM (inactive) | 42.5 µM (inactive) | 34.7 µM (inactive) | > 100 µM (inactive) | 96.2 µM (inactive) | > 100 µM (inactive) | 20.8 µM (inactive) | 43.8 µM (inactive) | 45.4 µM (inactive) | 47.5 µM (inactive) | 50.4 µM (inactive) | 42.7 µM (inactive) | > 100 µM (inactive) | 28.9 µM (inactive) | 48.4 µM (inactive) | 40.7 µM (inactive) | 31.9 µM (inactive) | 23.8 µM (inactive)
8 | C=CCc1cc(C(Cc2ccccc2)NC(C)C)cc(OCc2ccccc2)c1OCc1ccccc1 (configuration not stated) | 16.9 µM (inactive) | 16.3 µM (inactive) | 16.4 µM (inactive) | 18.8 µM (inactive) | 16.2 µM (inactive) | 15.5 µM (inactive) | 15.2 µM (inactive) | 19.1 µM (inactive) | 14.5 µM (inactive) | 18.2 µM (inactive) | 15.1 µM (inactive) | 14.3 µM (inactive) | 15.8 µM (inactive) | 17.3 µM (inactive) | 16.4 µM (inactive) | 20.7 µM (inactive) | 14.4 µM (inactive) | 12.2 µM (inactive) | 15.3 µM (inactive) | 15.9 µM (inactive)
9 | CCc1cccc(C(C)C)c1NC(=O)C(=O)C1C(=O)Nc2ccccc2[S+]1[O-] (configuration not stated) | > 100 µM (inactive) | > 100 µM (inactive) | > 100 µM (inactive) | > 100 µM (inactive) | 57.8 µM (inactive) | > 100 µM (inactive) | > 100 µM (inactive) | > 100 µM (inactive) | > 100 µM (inactive) | > 100 µM (inactive) | > 100 µM (inactive) | > 100 µM (inactive) | 38.9 µM (inactive) | > 100 µM (inactive) | > 100 µM (inactive) | > 100 µM (inactive) | 56.1 µM (inactive) | > 100 µM (inactive) | > 100 µM (inactive) | > 100 µM (inactive)
10 | O=C(OC12CC3CC(CC(C3)C1)C2)c1ccc(NCc2cc(O)ccc2O)cc1 | 0.968 µM (active) | 0.637 µM (active) | 1.17 µM (inactive) | 1.07 µM (active) | 0.843 µM (active) | 0.625 µM (active) | 0.467 µM (active) | 1.73 µM (inactive) | 0.262 µM (active) | 1.67 µM (inactive) | 1.48 µM (inactive) | 0.701 µM (active) | 0.109 µM (active) | 0.333 µM (active) | 0.489 µM (active) | 1.16 µM (inactive) | 0.288 µM (active) | 0.132 µM (active) | 1.44 µM (inactive) | 0.0383 µM (active)
11 | COC(=O)c1ccc(/C=C2\CCc3ccccc3C2=O)cc1 | > 100 µM (inactive) | > 100 µM (inactive) | > 100 µM (inactive) | > 100 µM (inactive) | > 100 µM (inactive) | > 100 µM (inactive) | > 100 µM (inactive) | > 100 µM (inactive) | > 100 µM (inactive) | > 100 µM (inactive) | > 100 µM (inactive) | > 100 µM (inactive) | > 100 µM (inactive) | > 100 µM (inactive) | > 100 µM (inactive) | > 100 µM (inactive) | > 100 µM (inactive) | > 100 µM (inactive) | > 100 µM (inactive) | > 100 µM (inactive)
12 | O=C1c2ccc(O)cc2OC(c2cc(O)c(O)c(O)c2)C1O (configuration not stated) [DIHYDROBINETIN] | 25.8 µM (inactive) | 25.1 µM (inactive) | 22 µM (inactive) | 34.5 µM (inactive) | 19 µM (inactive) | > 100 µM (inactive) | 21.5 µM (inactive) | 58.2 µM (inactive) | 37.8 µM (inactive) | 25 µM (inactive) | 23.4 µM (inactive) | 22.5 µM (inactive) | 18 µM (inactive) | 20.5 µM (inactive) | 46.8 µM (inactive) | 26.7 µM (inactive) | > 100 µM (inactive) | 20.5 µM (inactive) | > 100 µM (inactive) | 24.1 µM (inactive)
13 | NCC(=O)N1CCN(c2nc(N3CCCC3)c3nc(Cl)c(NCc4ccccc4)nc3n2)CC1 | 2.11 µM (inactive) | 8.26 µM (inactive) | 1.79 µM (inactive) | 1.95 µM (inactive) | 1.87 µM (inactive) | 2.15 µM (inactive) | 1.99 µM (inactive) | 2.91 µM (inactive) | 1.42 µM (inactive) | 2.66 µM (inactive) | 1.91 µM (inactive) | 1.71 µM (inactive) | 1.63 µM (inactive) | 2.09 µM (inactive) | 2.23 µM (inactive) | 2.04 µM (inactive) | 1.43 µM (inactive) | 1.56 µM (inactive) | 1.72 µM (inactive) | 2.49 µM (inactive)
14 | O=c1cc(CO)oc(C(O)c2ccccc2)c1O (configuration not stated) | > 100 µM (inactive) | > 100 µM (inactive) | > 100 µM (inactive) | > 100 µM (inactive) | – | > 100 µM (inactive) | > 100 µM (inactive) | > 100 µM (inactive) | > 100 µM (inactive) | > 100 µM (inactive) | > 100 µM (inactive) | > 100 µM (inactive) | > 100 µM (inactive) | > 100 µM (inactive) | > 100 µM (inactive) | > 100 µM (inactive) | > 100 µM (inactive) | > 100 µM (inactive) | > 100 µM (inactive) | –
